# Measurements reported in patent publication US12545640B2, “Substituted 6,7-dihydro-5H-benzo[7]annulene compounds, processes for their preparation and therapeutic uses thereof” (SANOFI, priority 2019, dated 2026).
# Where a name gives a salt, the structure may show the parent alone.
# Biological target: T1, ERα (Homo sapiens, UniProt P03372)
# T1 construct: host or cells: MCF7 cells
# T1 sequence (P03372 1-595): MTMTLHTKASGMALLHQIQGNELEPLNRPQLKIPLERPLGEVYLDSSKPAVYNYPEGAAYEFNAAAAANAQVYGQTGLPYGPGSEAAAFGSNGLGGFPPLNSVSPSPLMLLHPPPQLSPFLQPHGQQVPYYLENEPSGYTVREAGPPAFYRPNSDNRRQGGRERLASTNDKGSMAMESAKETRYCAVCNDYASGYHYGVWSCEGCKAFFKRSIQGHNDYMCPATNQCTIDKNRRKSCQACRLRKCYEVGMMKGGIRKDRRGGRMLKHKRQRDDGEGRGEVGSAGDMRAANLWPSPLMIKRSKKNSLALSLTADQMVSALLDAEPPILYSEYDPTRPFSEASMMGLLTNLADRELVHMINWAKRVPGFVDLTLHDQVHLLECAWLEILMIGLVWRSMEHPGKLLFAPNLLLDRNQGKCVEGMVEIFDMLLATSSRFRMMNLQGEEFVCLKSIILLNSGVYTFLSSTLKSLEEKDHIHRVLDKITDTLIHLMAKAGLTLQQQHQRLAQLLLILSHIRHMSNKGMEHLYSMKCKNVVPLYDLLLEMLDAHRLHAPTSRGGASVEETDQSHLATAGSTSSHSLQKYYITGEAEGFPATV
# Assay: Estrogen receptor degradation activity: breast cancer cell ERα in cell western assay (MCF7 cells)
# Assay type: cell-based
# Conditions: 4 hours, final concentrations ranging from 0.3-0.0000018 μM, relative to fulvestrant 0.1 μM positive control
# Summary of the method: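 MCF7 cells in phenol red-free MEM alpha with 5% charcoal-stripped FBS, treated 4 h with 9-point 1:5 dilutions (top final 3 or 0.3 μM); fulvestrant 0.1 μM as positive control. Formalin-fixed, anti-ER antibody with Alexa 488 secondary; ERα fluorescence normalised to Syto-64 DNA signal.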
row,Compound,% Degradation At 0.3 μM
1,"CC(C)(C)OC(=O)Nc1ccc2c(c1)CCCC(c1ccccc1)=C2c1ccc(O[C@H]2CCN(CCCF)C2)cc1 [Example 71, tert-butyl (S)-(9-(4-((1-(3-fluoropropyl)pyrrolidin-3-yl)oxy)phenyl)-8-phenyl-6,7-dihydro-5H-benzo[7]annulen-3-yl)carbamate]",91%
2,"C/N=c1\scc(-c2ccc3c(c2)CCCC(c2ccc(Cl)cc2Cl)=C3c2ccc(O[C@H]3CCN(CCCF)C3)cc2)n1C [Example 69, (S,Z)-4-(8-(2,4-dichlorophenyl)-9-(4-((1-(3-fluoropropyl)pyrrolidin-3-yl)oxy)phenyl)-6,7-dihydro-5H-benzo[7]annulen-3-yl)-N,3-dimethylthiazol-2(3H)-imine hydrochloride]",69%
3,"CC1(C(=O)Nc2ccc3c(c2)CCCC(c2ccc(Cl)cc2Cl)=C3c2ccc(O[C@H]3CCN(CCCF)C3)cc2)CC1 [Example 67, (S)—N-(8-(2,4-dichlorophenyl)-9-(4-((1-(3-fluoropropyl)pyrrolidin-3-yl)oxy)phenyl)-6,7-dihydro-5H-benzo[7]annulen-3-yl)-1-methylcyclopropane-1-carboxamide]",79%

# Continued, values first:
row,% Degradation At 0.3 μM,Compound
1,69%,"O=C1C[C@H](O)CN1c1ccc2c(c1)CCCC(c1ccc(Cl)cc1Cl)=C2c1ccc(O[C@H]2CCN(CCCF)C2)cc1 [Example 85, (S)-1-(8-(2,4-dichlorophenyl)-9-(4-(((S)-1-(3-fluoropropyl)pyrrolidin-3-yl)oxy)phenyl)-6,7-dihydro-5H-benzo[7]annulen-3-yl)-4-hydroxypyrrolidin-2-one]"
2,73%,"O=C(Nc1ccc2c(c1)CCCC(c1ccc(Cl)cc1Cl)=C2c1ccc(O[C@H]2CCN(CCCF)C2)cc1)C1CC1(F)F (stereo partly drawn) [Example 87, N-(8-(2,4-dichlorophenyl)-9-(4-(((S)-1-(3-fluoropropyl)pyrrolidin-3-yl)oxy)phenyl)-6,7-dihydro-5H-benzo[7]annulen-3-yl)-2,2-difluorocyclopropane-1-carboxamide]"
3,91%,"CCOc1ccc(C2=C(c3ccc(O[C@H]4CCN(CCCF)C4)cc3)c3ccc(C(N)=O)cc3CCC2)c(F)n1 [Example 79, (S)-8-(6-ethoxy-2-fluoropyridin-3-yl)-9-(4-((1-(3-fluoropropyl)pyrrolidin-3-yl)oxy)phenyl)-6,7-dihydro-5H-benzo[7]annulene-3-carboxamide]"
4,59%,"O=C(c1ccc2c(c1)CCCC(c1ccc(Cl)cc1Cl)=C2c1ccc(O[C@H]2CCN(CCCF)C2)cc1)N1CC(O)C1 [Example 74, (S)-(8-(2,4-dichlorophenyl)-9-(4-((1-(3-fluoropropyl)pyrrolidin-3-yl)oxy)phenyl)-6,7-dihydro-5H-benzo[7]annulen-3-yl)(3-hydroxyazetidin-1-yl)methanone]"
5,55%,"NC(=O)C(=O)Nc1ccc2c(c1)CCCC(c1ccc(Cl)cc1Cl)=C2c1ccc(O[C@H]2CCN(CCCF)C2)cc1 [Example 77, (S)—N1-(8-(2,4-dichlorophenyl)-9-(4-((1-(3-fluoropropyl)pyrrolidin-3-yl)oxy)phenyl)-6,7-dihydro-5H-benzo[7]annulen-3-yl)oxalamide]"

# Same assay, conditions: 4 hours, final concentrations ranging from 3-0.000018 μM, relative to fulvestrant 0.1 μM positive control
row,% Degradation At 3 μM,Compound
1,76%,"O=C1CC(c2ccc3c(c2)CCCC(c2ccc(Cl)cc2Cl)=C3c2ccc(O[C@H]3CCN(CCCF)C3)cc2)=NO1 [Example 13, (S)-3-(8-(2,4-dichlorophenyl)-9-(4-((1-(3-fluoropropyl)pyrrolidin-3-yl)oxy)phenyl)-6,7-dihydro-5H-benzo[7]annulen-3-yl)isoxazol-5(4H)-one]"
2,84%,"O=C(O)c1cccc(-c2ccc3c(c2)CCCC(c2ccc(Cl)cc2Cl)=C3c2ccc(O[C@H]3CCN(CCCF)C3)cc2)c1 [Example 55, (S)-3-(8-(2,4-dichlorophenyl)-9-(4-((1-(3-fluoropropyl)pyrrolidin-3-yl)oxy)phenyl)-6,7-dihydro-5H-benzo[7]annulen-3-yl)benzoic acid]"
3,92%,"OC(c1ccc2c(c1)CCCC(c1ccc(Cl)cc1Cl)=C2c1ccc(O[C@H]2CCN(CCCF)C2)cc1)C(F)(F)F (stereo partly drawn) [Example 10, 1-(8-(2,4-dichlorophenyl)-9-(4-(((S)-1-(3-fluoropropyl)pyrrolidin-3-yl)oxy)phenyl)-6,7-dihydro-5H-benzo[7]annulen-3-yl)-2,2,2-trifluoroethan-1-ol]"
4,74%,"FCCCN1CC[C@H](Oc2ccc(C3=C(c4ccc(OC(F)(F)F)cc4)CCCc4cc(-c5cn[nH]c5)ccc43)cc2)C1 [Example 23, (S)-4-(9-(4-((1-(3-fluoropropyl)pyrrolidin-3-yl)oxy)phenyl)-8-(4-(trifluoromethoxy)phenyl)-6,7-dihydro-5H-benzo[7]annulen-3-yl)-1H-pyrazole]"
5,82%,"N#Cc1ccc2c(c1)CCCC(c1ccc(Cl)cc1Cl)=C2c1ccc(O[C@H]2CCN(CCCF)C2)cc1 [Example 22, (S)-8-(2,4-dichlorophenyl)-9-(4-((1-(3-fluoropropyl)pyrrolidin-3-yl)oxy)phenyl)-6,7-dihydro-5H-benzo[7]annulene-3-carbonitrile]"
6,66%,"O=C1OCCN1c1ccc2c(c1)CCCC(c1ccc(Cl)cc1Cl)=C2c1ccc(O[C@H]2CCN(CCCF)C2)cc1 [Example 40, (S)-3-(8-(2,4-dichlorophenyl)-9-(4-((1-(3-fluoropropyl)pyrrolidin-3-yl)oxy)phenyl)-6,7-dihydro-5H-benzo[7]annulen-3-yl)oxazolidin-2-one]"
